For test [1], the target named is CDK2/Cyclin E1 (Homo sapiens (Human), UniProt P24941). As to the kind of experiment: biochemical. The settings on record: CDK2_Ki (nM), phosphorylated CDK2/Cyclin E1, 150 μM ATP, Morrison tight-binding fit.
Protocol: The assay was initiated with the addition of ATP, following a fifteen minutes pre-incubation of enzyme and inhibitor at room temperature in the reaction mixture. The reaction was stopped after 45 minutes at room temperature by the addition of 50 μL of 80 mM EDTA, pH 7.5.
Test [2] concerns the target CDK6/Cyclin D1 (Homo sapiens (Human), UniProt Q00534). As to the kind of experiment: biochemical. The conditions noted are these: CDK6_Ki (nM), non-phosphorylated CDK6/Cyclin D1, 2 mM ATP, Morrison fit.

Structures are written as SMILES.

CDK6/Cyclin D1, sequence (Q00534 whole entry): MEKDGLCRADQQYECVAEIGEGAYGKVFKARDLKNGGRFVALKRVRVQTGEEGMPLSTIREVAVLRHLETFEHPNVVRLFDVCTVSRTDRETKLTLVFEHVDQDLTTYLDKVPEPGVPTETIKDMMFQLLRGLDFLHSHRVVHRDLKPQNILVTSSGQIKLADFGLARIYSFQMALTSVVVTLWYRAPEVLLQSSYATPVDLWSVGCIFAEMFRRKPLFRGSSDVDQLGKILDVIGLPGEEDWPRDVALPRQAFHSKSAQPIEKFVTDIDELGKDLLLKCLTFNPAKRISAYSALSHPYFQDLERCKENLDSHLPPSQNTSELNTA
CDK6/Cyclin D1, sequence (P24385 whole entry partner): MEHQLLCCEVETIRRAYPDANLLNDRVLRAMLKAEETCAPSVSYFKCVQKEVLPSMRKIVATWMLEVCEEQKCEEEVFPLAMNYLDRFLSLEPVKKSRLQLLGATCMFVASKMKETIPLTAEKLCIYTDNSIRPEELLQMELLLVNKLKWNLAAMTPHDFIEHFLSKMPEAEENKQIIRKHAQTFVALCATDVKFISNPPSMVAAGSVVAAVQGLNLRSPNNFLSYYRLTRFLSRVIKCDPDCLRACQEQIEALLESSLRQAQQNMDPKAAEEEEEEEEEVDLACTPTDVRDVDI

Consider `CS(=O)(=O)N1CCC(Nc2ncc3cc(C(F)F)c(=O)n([C@H]4CC[C@H](O)C4)c3n2)CC1` (relative stereo) [Example 134, (+)-6-(difluoromethyl)-8-[(1R*,3R*)-3-hydroxycyclopentyl]-2-{[1-(methylsulfonyl)piperidin-4-yl]amino}pyrido[2,3-d]pyrimidin-7(8H)-one], for which the figures for the Ki in test [1] and in test [2] were 1.25 nM and 0.53 nM, respectively.

As for `C[C@@]1(O)CCC[C@H]1n1c(=O)c(F)cc2cnc(NC3CCN(S(C)(=O)=O)CC3)nc21` (single isomer, unassigned) [Example 5, (+)-6-fluoro-8-[(1R*,2R*)-2-hydroxy-2-methylcyclopentyl]-2-{[1-(methylsulfonyl)piperidin-4-yl]amino}pyrido[2,3-d]pyrimidin-7(8H)-one], the inhibitory constant (Ki) in test [1] was found to be 4.75 nM; in test [2] it was 13.1 nM. Take `Cc1cc2cnc(NC3CCN(S(C)(=O)=O)CC3)nc2n([C@@H]2CCC[C@@H](O)C2)c1=O` (single isomer, unassigned) [Example 32, (+)-8-[(1R*,3R*)-3-hydroxycyclohexyl]-6-methyl-2-{[1-(methylsulfonyl)piperidin-4-yl]amino}pyrido[2,3-d]pyrimidin-7(8H)-one]: the Ki was 0.84 nM in test [1] and 1.1 nM in test [2]. In the same order, the values of `CS(=O)(=O)N1CCC(Nc2ncc3cc(Cl)c(=O)n([C@@H]4CCC[C@@H](O)C4)c3n2)CC1` (single isomer, unassigned) [Example 34, (+)-6-chloro-8-[(1R*,3R*)-3-hydroxycyclohexyl]-2-{[1-(methylsulfonyl)piperidin-4-yl]amino}pyrido[2,3-d]pyrimidin-7(8H)-one] are 1.34 nM and 0.42 nM.

Consider `CS(=O)(=O)N1CCC(Nc2ncc3cc(Cl)c(=O)n([C@H]4CCC[C@H](O)C4)c3n2)CC1` (single isomer, unassigned) [Example 35, (−)-6-chloro-8-[(1R*,3R*)-3-hydroxycyclohexyl]-2-{[1-(methylsulfonyl)piperidin-4-yl]amino}pyrido[2,3-d]pyrimidin-7(8H)-one], for which the Ki was found to be 19.2 nM in test [1] and 7.82 nM in test [2]. In the same order, the values of `CS(=O)(=O)N1CCC(Nc2ncc3ccc(=O)n([C@H]4CC[C@H](O)C4)c3n2)CC1` (single isomer, unassigned) [Example 53, (+)-8-[(1R*,3R*)-3-hydroxycyclopentyl]-2-{[1-(methylsulfonyl)piperidin-4-yl]amino}pyrido[2,3-d]pyrimidin-7(8H)-one] are 1.09 nM and 3.79 nM. The matching figures for `CNS(=O)(=O)N1CCC(Nc2ncc3ccc(=O)n([C@@H]4CCC[C@@]4(C)O)c3n2)CC1` (single isomer, unassigned) [Example 56, (−)-4-({8-[(1R*,2R*)-2-hydroxy-2-methylcyclopentyl]-7-oxo-7,8-dihydropyrido[2,3-d]pyrimidin-2-yl}amino)-N-methylpiperidine-1-sulfonamide]: 0.28 nM and 1.77 nM. The matching figures for `C[C@@]1(O)CCC[C@H]1n1c(=O)ccc2cnc(NC3CCN(S(=O)(=O)CF)CC3)nc21` (single isomer, unassigned) [Example 58, (−)-2-({1-[(fluoromethyl)sulfonyl]piperidin-4-yl}amino)-8-[(1R*,2R*)-2-hydroxy-2-methylcyclopentyl]pyrido[2,3-d]pyrimidin-7(8H)-one]: 0.27 nM and 0.49 nM. On to `C[C@]1(O)CCC[C@@H]1n1c(=O)ccc2cnc(NC3CCN(S(=O)(=O)CF)CC3)nc21` (single isomer, unassigned) [Example 59, (+)-2-({1-[(fluoromethyl)sulfonyl]piperidin-4-yl}amino)-8-[(1R*,2R*)-2-hydroxy-2-methylcyclopentyl]pyrido[2,3-d]pyrimidin-7(8H)-one], for which the Ki in test [1] was found to be 4.13 nM; in test [2], 3.37 nM.

With `COC(C)(C)CNS(=O)(=O)N1CCC(Nc2ncc3ccc(=O)n([C@@H]4CCC[C@@]4(C)O)c3n2)CC1` (single isomer, unassigned) [Example 60, (−)-4-({8-[(1R*,2R*)-2-hydroxy-2-methylcyclopentyl]-7-oxo-7,8-dihydropyrido[2,3-d]pyrimidin-2-yl}amino)-N-(2-methoxy-2-methylpropyl)piperidine-1-sulfonamide], the Ki in test [1] was found to be 0.48 nM; in test [2] it was 3.18 nM. `CS(=O)(=O)N1CC[C@H](Nc2ncc3cc(Cl)c(=O)n(C4CCCC4)c3n2)[C@H](F)C1` (single isomer, unassigned) [Example 152, (−)-6-chloro-8-cyclopentyl-2-{[(3R*,4S*)-3-fluoro-1-(methylsulfonyl)piperidin-4-yl]amino}pyrido[2,3-d]pyrimidin-7(8H)-one] had a Ki in test [2] of 0.43 nM. The same measure, in the same setting: then `CS(=O)(=O)N1CC[C@@H](Nc2ncc3cc(Cl)c(=O)n(C4CCCC4)c3n2)[C@@H](F)C1` (single isomer, unassigned) [Example 153, (+)-6-chloro-8-cyclopentyl-2-{[(3R*,4S*)-3-fluoro-1-(methylsulfonyl)piperidin-4-yl]amino}pyrido[2,3-d]pyrimidin-7(8H)-one], with 2.23 nM. The same measure, in the same setting: then `CS(=O)(=O)N1CC[C@H](Nc2ncc3cc(Cl)c(=O)n(C4CCCC4)c3n2)[C@@H](F)C1` (single isomer, unassigned) [Example 154, (−)-6-chloro-8-cyclopentyl-2-{[(3S*,4S*)-3-fluoro-1-(methylsulfonyl)piperidin-4-yl]amino}pyrido[2,3-d]pyrimidin-7(8H)-one], with 0.27 nM; and `CS(=O)(=O)N1CC[C@@H](Nc2ncc3cc(Cl)c(=O)n(C4CCCC4)c3n2)[C@H](F)C1` (single isomer, unassigned) [Example 155, (+)-6-chloro-8-cyclopentyl-2-{[(3S*,4S*)-3-fluoro-1-(methylsulfonyl)piperidin-4-yl]amino}pyrido[2,3-d]pyrimidin-7(8H)-one], with 2.26 nM. Same read-out and setting: then `CS(=O)(=O)N1CC[C@@H](Nc2ncc3cc(N)c(=O)n(C4CCCC4)c3n2)[C@@H](F)C1` (single isomer, unassigned; isomer a) [Example 151, 6-amino-8-cyclopentyl-2-{[(3R*,4S*)-3-fluoro-1-(methylsulfonyl)piperidin-4-yl]amino}pyrido[2,3-d]pyrimidin-7(8H)-one-Isomer A], with 7.29 nM. On to `Cc1cc2cnc(NC3CCN(S(=O)(=O)N(C)C)CC3)nc2n(C2CCCC2)c1=O` [Example 24, 4-[(8-cyclopentyl-6-methyl-7-oxo-7,8-dihydropyrido[2,3-d]pyrimidin-2-yl)amino]-N,N-dimethylpiperidine-1-sulfonamide], for which affinity in test [1] was put at a Ki of 1.59 nM. Take `Cc1cc2cnc(NC3CCN(S(=O)(=O)C(F)F)CC3)nc2n(C2CCCC2)c1=O` [Example 26, 8-cyclopentyl-2-({1-[(difluoromethyl)sulfonyl]piperidin-4-yl}amino)-6-methylpyrido[2,3-d]pyrimidin-7(8H)-one]: in test [1], the Ki is 3.84 nM.

`CN(C)S(=O)(=O)N1CCC(Nc2ncc3cc(CCO)c(=O)n(C4CCCC4)c3n2)CC1` [Example 27, 4-{[8-cyclopentyl-6-(2-hydroxyethyl)-7-oxo-7,8-dihydropyrido[2,3-d]pyrimidin-2-yl]amino}-N,N-dimethylpiperidine-1-sulfonamide] registered a Ki in test [1] of 3.85 nM. Regarding `C[C@@H]1CCC[C@@H]1n1c(=O)c(Cl)cc2cnc(NC3CCN(S(C)(=O)=O)CC3)nc21` [Example 39, 6-chloro-8-[(1S,2R)-2-methylcyclopentyl]-2-{[1-(methylsulfonyl)piperidin-4-yl]amino}pyrido[2,3-d]pyrimidin-7(8H)-one], the Ki in test [1] is 1.28 nM. Same read-out and setting: then `CNS(=O)(=O)N1CCC(Nc2ncc3cc(C)c(=O)n([C@H]4CCC[C@H]4C)c3n2)CC1` [Example 43, N-methyl-4-({6-methyl-8-[(1S,2R)-2-methylcyclopentyl]-7-oxo-7,8-dihydropyrido[2,3-d]pyrimidin-2-yl}amino)piperidine-1-sulfonamide], with 1.56 nM. On the same count and under the same terms, then `CNS(=O)(=O)N1CCC(Nc2ncc3ccc(=O)n([C@H]4CCC[C@H]4C)c3n2)CC1` [Example 45, N-methyl-4-({8-[(1S,2R)-2-methylcyclopentyl]-7-oxo-7,8-dihydropyrido[2,3-d]pyrimidin-2-yl}amino)piperidine-1-sulfonamide], with 0.93 nM.

For the compound `CNS(=O)(=O)N1CCC(Nc2ncc3cc(C)c(=O)n([C@@H]4CCC[C@H]4O)c3n2)CC1` [Example 55, 4-({8-[(1R,2R)-2-hydroxycyclopentyl]-6-methyl-7-oxo-7,8-dihydropyrido[2,3-d]pyrimidin-2-yl}amino)-N-methylpiperidine-1-sulfonamide], the Ki in test [1] was 4.66 nM.

Compound `C=Cc1cc2cnc(NC3CCN(S(C)(=O)=O)CC3)nc2n(C2CCCC2)c1=O` [Example 138, 8-cyclopentyl-6-ethenyl-2-{[1-(methylsulfonyl)piperidin-4-yl]amino}pyrido[2,3-d]pyrimidin-7(8H)-one] showed a Ki in test [1] of 0.87 nM. On the same count and under the same terms, then `C=CCc1cc2cnc(NC3CCN(S(C)(=O)=O)CC3)nc2n(C2CCCC2)c1=O` [Example 139, 8-cyclopentyl-2-{[1-(methylsulfonyl)piperidin-4-yl]amino}-6-(prop-2-en-1-yl)pyrido[2,3-d]pyrimidin-7(8H)-one], with 4.05 nM; and `CS(=O)(=O)N1CCC(Nc2ncc3cc(CC(F)F)c(=O)n(C4CCCC4)c3n2)CC1` [Example 149, 8-cyclopentyl-6-(2,2-difluoroethyl)-2-{[1-(methylsulfonyl)piperidin-4-yl]amino}pyrido[2,3-d]pyrimidin-7(8H)-one], with 2.29 nM; and `C[C@H]1CC[C@@H](O)C[C@@H]1n1c(=O)ccc2cnc(NC3CCN(S(C)(=O)=O)CC3)nc21` [Example 216, 8-[(1S,2S,5R)-5-hydroxy-2-methylcyclohexyl]-2-{[1-(methylsulfonyl)piperidin-4-yl]amino}pyrido[2,3-d]pyrimidin-7(8H)-one], with 1.48 nM.

For the origin of these results see patent US10233188B2, “CDK2/4/6 inhibitors” (priority 2016, dated 2019).
